Laboratory results taken from article PMC8160210, “Single tryptophan Y160W mutant of homooligomeric E. coli purine nucleoside phosphorylase implies that dimers forming the hexamer are functionally not equivalent” (Scientific Reports, 2021).
Like-named read-outs stand apart in the source and are kept apart here.

Legend:
WT E. coli PNP = target: T1, WT E. coli PNP (Escherichia coli, UniProt P0ABP8); test: Inhibition of m^7Guo phosphorolysis; format: biochemical; conditions: competitive inhibition Eq. (3), m^7Guo as variable substrate, 50 mM phosphate, pH 7.0, 25 °C
T1 construct: made in house
T1 sequence (P0ABP8 2-239 limits assumed): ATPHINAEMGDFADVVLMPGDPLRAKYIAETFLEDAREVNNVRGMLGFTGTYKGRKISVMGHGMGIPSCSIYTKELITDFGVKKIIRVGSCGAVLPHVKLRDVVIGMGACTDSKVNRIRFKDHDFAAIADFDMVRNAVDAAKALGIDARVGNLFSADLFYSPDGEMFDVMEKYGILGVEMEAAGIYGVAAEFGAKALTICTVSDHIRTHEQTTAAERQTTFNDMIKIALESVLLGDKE
Procedure: All activity measurements and kinetic studies were done in 50 mM Hepes/HCl buffer pH 7.0 at 25 °C as previously described for the WT E. coli PNP and its active-site mutants, using direct spectrophotometric assay for adenosine, guanosine and 7-methylguanosine as substrates, and a coupled assay with xanthine oxidase in the case of inosine[13],[28],[29]. Activity measurements were performed for each protein sample, before and after each experiment as a control of the state of the protein.
To determine inhibition model and inhibition constant for formycin A, rate of phosphorolysis with m^7Guo as a variable substrate, at constant, 50 mM, phosphate concentration, was registered in the absence of the inhibitor and in the presence of two different concentrations of formycin. A global fitting to the whole data set was performed, using various models (competitive, uncompetitive, noncompetitive, mixed). As expected for the substrate analogue, competitive model described the data sufficiently well:3 v0c0=Vmax1c0/c0+KM1+ci/Ki where ci is inhibitor concentration. Kinetic data were analysed using the GraphPad Prism program (Intuitive Software for Science, San Diego, CA, USA).

Y160W PNP mutant [1] = target: T2, Y160W PNP mutant (Escherichia coli, UniProt P0ABP8, Y161W); conditions: phosphate as variable substrate, 0.4 mM m^7Guo, allostery Eq. (2)
T2 sequence (P0ABP8 2-239 Y161W): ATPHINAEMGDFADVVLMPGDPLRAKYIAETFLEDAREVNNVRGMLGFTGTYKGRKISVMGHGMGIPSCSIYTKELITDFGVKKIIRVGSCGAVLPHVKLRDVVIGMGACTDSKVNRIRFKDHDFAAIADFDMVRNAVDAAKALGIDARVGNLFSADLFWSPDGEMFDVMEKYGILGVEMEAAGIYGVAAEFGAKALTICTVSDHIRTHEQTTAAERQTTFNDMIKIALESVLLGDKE
Procedure: Activity measurements were performed for each protein sample, before and after each experiment as a control of the state of the protein.
The classical Michaelis–Menten equation was fitted to the kinetic curves (i.e. initial rate of the reaction, v0, vs. initial substrate concentration, c0):1 v0c0=Vmax1c0/c0+KM1
Coefficients a and b express the degree of cooperation between the subunits in a dimer, while constants KM1 and Vmax1 characterize the active sites of the enzyme when the neighbouring site is free.
A more complex model was used if there was a statistically significant decrease in the residual sum of squares as judged by the F test at 95% confidence level.

Y160W PNP mutant [2] = target: T2, Y160W PNP mutant; test: Thermophoretic (MST) titrations with phosphate; set-up: made in house; host or cells: E. coli DH5α-T1; species or system E. coli; conditions: two-binding-site model, 25 °C
Procedure: Measurements were performed with Monolith NT115 (NanoTemper). Enzyme was labelled with NT647 fluorescent dye (NanoTemper) according to the protocol provided by the manufacturer. Labelled proteins show fluorescence excitation and emission maxima of approximately 650 and 670 nm, respectively. The series of titrations were performed at a constant protein concentration. Both proteins (WT and mutant), and ligands were dissolved in 50 mM Tris/HCl pH 7.6 buffer, measurements were performed at 25 °C. […] In the pre-experiments, it was carefully checked for both proteins, WT and Y160W mutant whether any sign of aggregation or inactivation occurs, and if mutant behaviour is similar to that of the WT enzyme. […]
For experiments of the binary complex formation with phosphate, curves were measured at four different powers of the heating laser. Two to five titrations at each heating power were measured, and curves were averaged for a particular heating power. […] This is an area inaccessible in fluorescence titration due to the quenching of the protein fluorescence at such a high ionic strength of the solution. […]
Titration series were analysed globally, always starting from the simplest, one-binding-site model. […] For all tested models the Akaike information criterion[23] was also calculated. […]

| Structure (SMILES) | Ki (WT E. coli PNP) [µM] | a (cooperativity coefficient, KM2 = aKM1) (Y160W PNP mutant [1]) | b (cooperativity coefficient, Vmax2 = bVmax1) (Y160W PNP mutant [1]) | Km (Y160W PNP mutant [1]; pH 7.0, 25 °C) [µM] | Vmax (Y160W PNP mutant [1]; pH 7.0, 25 °C) [U/mg] | Kd (Y160W PNP mutant [2]; 50 mM Tris/HCl pH 7.6, read-out: Kd1 ± SD) [µM] | Kd (Y160W PNP mutant [2]; 50 mM Tris/HCl pH 7.6, read-out: Kd3 ± SD) [µM] |
| --- | --- | --- | --- | --- | --- | --- | --- |
| Nc1ncnc2c([C@@H]3O[C@H](CO)[C@@H](O)[C@H]3O)[nH]nc12 [FA, Formycin A] | 5.3 ± 0.4 |  |  |  |  |  |  |
| O=P(O)(O)O [Pi, Orthophosphate] |  | 390 ± 122 | 0.94 ± 0.05 | 18.7 ± 2.7 | 11.7 ± 0.4 | 3.2 | 1280 |
